The test system of one test is PC-3. Kind of test: Growth inhibition of human PC3 cells. The test is classed as functional.
Another test has as its system A549. The test can be described thus: Growth inhibition of human A549 cells. The test is classed as functional.
A further test concerns KB. The test can be described thus: Growth inhibition of human KB cells. The test is classed as functional.
Another test concerns A2780. Kind of test: Growth inhibition of human A2780 cells. The test is classed as functional.
A further test concerns SiHa. The test can be described thus: Growth inhibition of human SiHa cells. The test is classed as functional.
Test [1] concerns MCF7. The test can be described thus: Cell cycle arrest in human MCF7 cells assessed as accumulation at G0 phase at 4 uM after 24 hrs by propidium iodide staining based flow cytometry (reference value: 2.77%). The test is classed as functional. (In flow cytometry, cells or beads pass a laser one at a time.)
For test [2], the system named is MCF7. The test can be described thus: Cell cycle arrest in human MCF7 cells assessed as accumulation at G1 phase at 4 uM after 24 hrs by propidium iodide staining based flow cytometry (reference value: 57.98%). The test is classed as functional.
In test [3] the test system is MCF7. The test can be described thus: Cell cycle arrest in human MCF7 cells assessed as accumulation at S phase at 4 uM after 24 hrs by propidium iodide staining based flow cytometry (reference value: 14.30%). The test is classed as functional.
The test system of test [4] is MCF7. Kind of test: Cell cycle arrest in human MCF7 cells assessed as accumulation at G2/M phase at 4 uM after 24 hrs by propidium iodide staining based flow cytometry (reference value: 24.95%). The test is classed as functional.
The subject of test [5] is MCF7. The test can be described thus: Cell cycle arrest in human MCF7 cells assessed as accumulation at G0/G1 phase at 4 uM after 24 hrs by propidium iodide staining based flow cytometry (reference value: 60.75%). The test is classed as functional.
A further test deals with Calf thymus DNA. Kind of test: Binding affinity to calf thymus DNA assessed as change in melting temperature at compound to DNA ratio of 1:5 after 18 hrs by thermal denaturation analysis. The test is classed as nucleic-acid assay. The note with it: Bos taurus.
A further test concerns HOP-62. The test can be described thus: Growth inhibition of human HOP62 cells. The test is classed as functional.
A further test deals with COLO 205. The test can be described thus: Growth inhibition of human COLO205 cells. The test is classed as functional.
The test system of test [6] is MCF7. Kind of test: Growth inhibition of human MCF7 cells. The test is classed as functional.
Test [7] is described as follows: Growth inhibition of human Gurav cells. The test is classed as functional.
For another test, the system named is ZR-75-1. Kind of test: Growth inhibition of human ZR-75-1 cells. The test is classed as functional.

`COc1ccc(-c2ccc3c(c2)c2cc(-c4ccc(OC)cc4)ccc2n3CCCCOc2cc3c(cc2OC)C(=O)N2CCC[C@H]2C=N3)cc1`: the GI50 in the test with PC-3 is 160 nM; with A549, 190 nM; with KB it was 190 nM; with A2780 it was 160 nM; in the test with SiHa, 170 nM; in the test on HOP-62 it was 140 nM. Further, the concentration for 50% growth inhibition (GI50) was found to be 190 nM with COLO 205 and 150 nM with MCF7 [6]. Further, the Activity with MCF7 [1] turned out to be 4.4%; in the test on MCF7 [2] it was 62.6%; in the test on MCF7 [3], 11.12%; in the test on MCF7 [4], 21.88%; in the test with MCF7 [5], 67%. The ΔTm in the test on Calf thymus DNA turned out to be 4.3 °C.

In the case of `COc1cc2c(cc1OCCCCn1c3ccccc3c3ccccc31)N=C[C@@H]1CCCN1C2=O`, the GI50 with A549 turned out to be 1920 nM; with KB, 1870 nM; in [7], 1600 nM; in the test on A2780, 1570 nM; in the test with SiHa, 1700 nM; in the test on ZR-75-1, 1810 nM. Further, the values for the GI50 in the test on HOP-62, in the test with COLO 205 and in the test with MCF7 [6] were 1930 nM, 1700 nM and 2210 nM, respectively. For the same compound, in the test with Calf thymus DNA, the ΔTm was found to be 3.5 °C.

Turning to `COc1cccc2c1C(=O)c1c(O)c3c(c(O)c1C2=O)C[C@@](O)(C(=O)CO)C[C@@H]3O[C@H]1C[C@H](N)[C@H](O)[C@H](C)O1` [DOXORUBICIN], the GI50 in the test with PC-3 was found to be 1830 nM; in the test on KB it was 170 nM; in test [7], 160 nM; in the test with A2780, 160 nM; in the test on SiHa it was 170 nM; with HOP-62, 140 nM. Besides, the GI50 in the test with COLO 205 is 140 nM; in the test on MCF7 [6], 170 nM.

Take `COc1cc2c(cc1OCCCN1CCN(CCCCn3c4ccccc4c4ccccc43)CC1)N=C[C@@H]1CCCN1C2=O`: the concentration for 50% growth inhibition (GI50) in the test with PC-3 is 110 nM; in the test with A549, 120 nM; in the test on KB, 140 nM; in [7], 130 nM; with A2780 it was 110 nM; with SiHa, 130 nM. The GI50 in the test with ZR-75-1 was determined as 150 nM; with HOP-62, 100 nM; in the test on COLO 205, 140 nM; with MCF7 [6] it was 150 nM. The thermal shift (ΔTm) with Calf thymus DNA amounted to 8.5 °C.

On to `COc1cc2c(cc1OCCCCN1CCN(CCCCn3c4ccccc4c4ccccc43)CC1)N=C[C@@H]1CCCN1C2=O`, for which the GI50 in the test on PC-3 amounted to 100 nM; in the test on A549 it was 130 nM; in the test on KB, 150 nM; in test [7], 170 nM; in the test on A2780, 160 nM; in the test with SiHa, 150 nM. The GI50 amounted to 150 nM with ZR-75-1, 80 nM in the test on HOP-62, 160 nM in the test with COLO 205 and 120 nM in the test on MCF7 [6]. Also, the ΔTm in the test on Calf thymus DNA stood at 8.4 °C.

For `COc1ccc(-c2ccc3[nH]c4ccc(-c5ccc(OC)cc5)cc4c3c2)cc1`, the Activity is given as 4.39% in the test with MCF7 [1]; 62.24% in the test with MCF7 [2]; 11.84% in the test on MCF7 [3]; 21.53% in the test with MCF7 [4]; 66.63% in the test on MCF7 [5].

Regarding `COc1cc2c(cc1OCCCn1c3ccccc3c3ccccc31)N=C[C@@H]1CCCN1C2=O`, the GI50 was 1840 nM in the test with A549; 1870 nM with KB; 1600 nM in test [7]; 1210 nM with A2780; 1700 nM in the test on SiHa; 1890 nM in the test on ZR-75-1. In addition, the figures for the GI50 with HOP-62, in the test on COLO 205 and in the test on MCF7 [6] were 1930 nM, 1680 nM and 1850 nM, respectively. In addition, in the test on Calf thymus DNA, the ΔTm came out at 4 °C.

On to `COc1ccc(-c2ccc3c(c2)c2cc(-c4ccc(OC)cc4)ccc2n3CCCCCOc2cc3c(cc2OC)C(=O)N2CCC[C@H]2C=N3)cc1`, for which the GI50 amounted to 150 nM with PC-3; 160 nM with A549; 170 nM with KB; 140 nM with A2780; 170 nM with SiHa; 120 nM with HOP-62. For the same compound, the values for the GI50 in the test on COLO 205 and in the test on MCF7 [6] were 180 nM and 140 nM, respectively. Also, in the test on Calf thymus DNA, the ΔTm came out at 5.9 °C.

`COc1cc2c(cc1O)N=C[C@@H]1CCCN1C2=O`: the GI50 worked out at 200 nM in the test on PC-3; 160 nM in the test with A549; 170 nM in the test on KB; 170 nM in [7]; 140 nM in the test on A2780; 170 nM with SiHa. Further, the 50% growth inhibitory concentration (GI50) in the test on ZR-75-1 was 2340 nM; in the test with HOP-62, 150 nM; in the test with COLO 205, 110 nM; in the test on MCF7 [6], 170 nM. Also, the Activity with MCF7 [1] is recorded as 3.95%; with MCF7 [2] it was 63.79%; with MCF7 [3], 12.2%; in the test with MCF7 [4] it was 20.07%; in the test on MCF7 [5], 67.74%.

Consider `COc1ccc(-c2ccc3c(c2)c2cc(-c4ccc(OC)cc4)ccc2n3CCCN2CCN(CCCOc3cc4c(cc3OC)C(=O)N3CCC[C@H]3C=N4)CC2)cc1`, for which the 50% growth inhibitory concentration (GI50) turned out to be 120 nM in the test on PC-3; 130 nM in the test on A549; 110 nM in the test on KB; 120 nM in test [7]; 10 nM in the test with A2780; 120 nM in the test with SiHa. Moreover, the GI50 in the test with ZR-75-1 worked out at 130 nM; in the test with HOP-62, 100 nM; in the test with COLO 205, 80 nM; in the test with MCF7 [6] it was 40 nM. In addition, the shift in melting temperature (ΔTm) with Calf thymus DNA was 7.2 °C.

Turning to `COc1ccc(-c2ccc3c(c2)c2cc(-c4ccc(OC)cc4)ccc2n3CCCOc2cc3c(cc2OC)C(=O)N2CCC[C@H]2C=N3)cc1`, the GI50 in the test on PC-3 was 160 nM; in the test with A549 it was 180 nM; in the test with KB, 180 nM; in the test with A2780, 150 nM; in the test with SiHa it was 170 nM; in the test with HOP-62, 110 nM. Moreover, the concentration for 50% growth inhibition (GI50) in the test with COLO 205 was determined as 170 nM; in the test on MCF7 [6], 130 nM. The ΔTm with Calf thymus DNA was determined as 4.8 °C.

With `COc1cc2c(cc1OCCCCCCn1c3ccccc3c3ccccc31)N=C[C@@H]1CCCN1C2=O`, the GI50 with A549 was found to be 1500 nM; in the test on KB, 1950 nM; in [7], 1710 nM; in the test on A2780, 1700 nM; in the test on SiHa it was 1580 nM; in the test with ZR-75-1, 2140 nM. Further, the figures for the GI50 in the test with HOP-62, in the test on COLO 205 and in the test with MCF7 [6] were 1580 nM, 1620 nM and 1650 nM, respectively. Moreover, the ΔTm in the test on Calf thymus DNA turned out to be 4.7 °C.

With `COc1cc2c(cc1OCCCCN1CCN(CCCn3c4ccccc4c4ccccc43)CC1)N=C[C@@H]1CCCN1C2=O`, the GI50 with PC-3 turned out to be 140 nM; in the test with A549 it was 140 nM; with KB, 160 nM; in [7], 150 nM; with A2780 it was 140 nM; in the test with SiHa it was 160 nM. The GI50 in the test with ZR-75-1 was 160 nM; in the test on HOP-62 it was 110 nM; in the test on COLO 205, 170 nM; with MCF7 [6] it was 150 nM. The ΔTm with Calf thymus DNA amounted to 7.9 °C.

By GI50 is commonly meant the concentration giving 50% growth inhibition. Higher therefore signals lower sensitivity of the cells. As a reminder, the ΔTm is the shift of the melting midpoint relative to a reference.

These data come from ChEMBL document CHEMBL3217457, “Carbazolepyrrolo[2,1-c][1,4]benzodiazepine conjugates: design, synthesis, and biological evaluation” (Medchemcomm, 2011).
